How the values were obtained:
Rattus norvegicus [1] = assay: Analgesic activity in SNL nerve injury in iv dosed rat model; assay type: functional; conditions: for minimal effective dose: Rattus norvegicus, iv, read-out: MED
Rattus norvegicus [2] = species: Rattus norvegicus; assay: Analgesic activity in streptozotocin-induced diabetic rat model of pain; assay type: functional; conditions: read-out: MED
Rattus norvegicus [3] = assay: Analgesic activity in carrageenan model in po dosed rat model; assay type: functional; conditions: read-out: MED
Rattus norvegicus [4] = assay: Analgesic activity in SNL nerve injury in po dosed rat model; assay type: functional
Rattus norvegicus [5] = assay: Analgesic activity in formalin-induced pain hypersensitivity in po dosed rat; assay type: functional
Rattus norvegicus [6] = assay: Analgesic activity in CCI and SNL nerve injury in po dosed rat model of pain; assay type: functional; conditions: read-out: MED
[7] = Activity at Kv.7 channel expressed in cloned CHO cells by patch clamp method; assay type: cell-based
[8] = molecular target: Potassium voltage-gated channel subfamily KQT member 2 (Homo sapiens, UniProt O43526); assay: Activity at Kv 7.2 channel expressed in cloned CHO cells by [86Rb] efflux assay; assay type: cell-based
Rattus norvegicus [9] = species: Rattus norvegicus; assay: Toxicity in rat by rotarod test; assay type: organism-based; conditions: in vivo
[10] = Therapeutic index, ratio of ED50 in rotor rod test in rat to ED50 in rat kindling model of epileptic seizures; conditions: read-out: TI
[11] = Therapeutic index, ratio of ED50 in rotor rod test in rat to ED50 in rat spinal nerve ligation model of neuropathic pain; assay type: organism-based; conditions: in vivo, read-out: TI
Rattus norvegicus [12] = assay: Analgesic activity in formalin-induced pain hypersensitivity in ip dosed rat; assay type: functional

Potassium voltage-gated channel subfamily KQT member 2, sequence (O43526 whole entry): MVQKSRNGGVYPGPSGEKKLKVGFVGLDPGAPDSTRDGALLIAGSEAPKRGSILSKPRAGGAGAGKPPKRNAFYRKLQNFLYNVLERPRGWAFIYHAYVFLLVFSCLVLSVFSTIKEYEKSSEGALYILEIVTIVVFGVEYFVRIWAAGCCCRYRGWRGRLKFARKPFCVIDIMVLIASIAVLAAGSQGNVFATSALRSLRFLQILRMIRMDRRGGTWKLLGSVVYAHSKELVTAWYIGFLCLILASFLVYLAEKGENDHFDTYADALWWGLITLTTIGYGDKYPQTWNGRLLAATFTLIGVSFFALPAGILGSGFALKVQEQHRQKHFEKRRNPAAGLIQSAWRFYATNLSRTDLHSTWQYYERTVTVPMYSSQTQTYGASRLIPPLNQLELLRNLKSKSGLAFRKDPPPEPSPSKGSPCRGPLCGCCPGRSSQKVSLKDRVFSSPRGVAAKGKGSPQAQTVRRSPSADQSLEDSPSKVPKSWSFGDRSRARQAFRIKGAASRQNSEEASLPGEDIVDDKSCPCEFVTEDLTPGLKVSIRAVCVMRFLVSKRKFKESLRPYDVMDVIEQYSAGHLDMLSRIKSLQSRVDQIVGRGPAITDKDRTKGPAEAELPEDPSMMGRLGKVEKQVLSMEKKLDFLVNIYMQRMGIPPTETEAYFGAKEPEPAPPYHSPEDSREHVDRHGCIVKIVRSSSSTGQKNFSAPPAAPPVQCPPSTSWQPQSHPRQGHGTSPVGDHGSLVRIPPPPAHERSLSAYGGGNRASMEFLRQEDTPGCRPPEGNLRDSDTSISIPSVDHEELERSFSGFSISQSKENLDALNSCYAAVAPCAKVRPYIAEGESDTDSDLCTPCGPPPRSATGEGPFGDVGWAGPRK

C[C@H](NC(=O)/C=C/c1ccccc1F)c1cccc(Oc2cccnc2)c1
minimal effective dose (Rattus norvegicus [1]): 10 mg/kg

C[C@H](NC(=O)/C=C/c1ccc(F)cc1)c1ccc(F)c(N2CCOCC2)c1
minimal effective dose (Rattus norvegicus [1]): 10 mg/kg
minimal effective dose (Rattus norvegicus [2]): 10 mg/kg

O=C(Nc1ccc(Cl)nc1)c1ccc(F)c(F)c1
minimal effective dose (Rattus norvegicus [3]): 30 mg/kg
ED50 (Rattus norvegicus [4]): 25 mg/kg

C[C@H](NC(=O)/C=C/c1ccccc1F)c1cccc(-n2cccn2)c1
minimal effective dose (Rattus norvegicus [1]): 10 mg/kg

CC(NC(=O)c1sc(-c2ccccc2F)nc1C(F)(F)F)c1cccc(-c2cccc(OC(F)(F)F)c2)c1 (stereo unspecified)
MED (Rattus norvegicus [1]): 10 mg/kg
minimal effective dose (Rattus norvegicus [1]): 10 mg/kg

CCOC(=O)Nc1ccc(NCc2ccc(F)cc2)cc1N [EZOGABINE]
ED50 (Rattus norvegicus [5]): 47.6 mg/kg
minimal effective dose (Rattus norvegicus [6]): 10 mg/kg
EC50 [7]: 1000 nM
EC50 [8]: < 150 nM
ED50 (Rattus norvegicus [9]): 40 mg/kg
selectivity ratio [10]: 4
selectivity ratio [11]: 1.6
ED50 (Rattus norvegicus [12]): 6.6 mg/kg
